According to ChEMBL document CHEMBL3991601, “The target landscape of clinical kinase drugs” (Science, 2017):
The source made the active and inactive calls. On the calls: in the data inactive means no Kd found up to 30 µM.

Columns and labels:
[1] = molecular target: T1, Mitogen-activated protein kinase kinase kinase 5 (Homo sapiens, UniProt Q99683)
T1 sequence (Q99683 whole entry): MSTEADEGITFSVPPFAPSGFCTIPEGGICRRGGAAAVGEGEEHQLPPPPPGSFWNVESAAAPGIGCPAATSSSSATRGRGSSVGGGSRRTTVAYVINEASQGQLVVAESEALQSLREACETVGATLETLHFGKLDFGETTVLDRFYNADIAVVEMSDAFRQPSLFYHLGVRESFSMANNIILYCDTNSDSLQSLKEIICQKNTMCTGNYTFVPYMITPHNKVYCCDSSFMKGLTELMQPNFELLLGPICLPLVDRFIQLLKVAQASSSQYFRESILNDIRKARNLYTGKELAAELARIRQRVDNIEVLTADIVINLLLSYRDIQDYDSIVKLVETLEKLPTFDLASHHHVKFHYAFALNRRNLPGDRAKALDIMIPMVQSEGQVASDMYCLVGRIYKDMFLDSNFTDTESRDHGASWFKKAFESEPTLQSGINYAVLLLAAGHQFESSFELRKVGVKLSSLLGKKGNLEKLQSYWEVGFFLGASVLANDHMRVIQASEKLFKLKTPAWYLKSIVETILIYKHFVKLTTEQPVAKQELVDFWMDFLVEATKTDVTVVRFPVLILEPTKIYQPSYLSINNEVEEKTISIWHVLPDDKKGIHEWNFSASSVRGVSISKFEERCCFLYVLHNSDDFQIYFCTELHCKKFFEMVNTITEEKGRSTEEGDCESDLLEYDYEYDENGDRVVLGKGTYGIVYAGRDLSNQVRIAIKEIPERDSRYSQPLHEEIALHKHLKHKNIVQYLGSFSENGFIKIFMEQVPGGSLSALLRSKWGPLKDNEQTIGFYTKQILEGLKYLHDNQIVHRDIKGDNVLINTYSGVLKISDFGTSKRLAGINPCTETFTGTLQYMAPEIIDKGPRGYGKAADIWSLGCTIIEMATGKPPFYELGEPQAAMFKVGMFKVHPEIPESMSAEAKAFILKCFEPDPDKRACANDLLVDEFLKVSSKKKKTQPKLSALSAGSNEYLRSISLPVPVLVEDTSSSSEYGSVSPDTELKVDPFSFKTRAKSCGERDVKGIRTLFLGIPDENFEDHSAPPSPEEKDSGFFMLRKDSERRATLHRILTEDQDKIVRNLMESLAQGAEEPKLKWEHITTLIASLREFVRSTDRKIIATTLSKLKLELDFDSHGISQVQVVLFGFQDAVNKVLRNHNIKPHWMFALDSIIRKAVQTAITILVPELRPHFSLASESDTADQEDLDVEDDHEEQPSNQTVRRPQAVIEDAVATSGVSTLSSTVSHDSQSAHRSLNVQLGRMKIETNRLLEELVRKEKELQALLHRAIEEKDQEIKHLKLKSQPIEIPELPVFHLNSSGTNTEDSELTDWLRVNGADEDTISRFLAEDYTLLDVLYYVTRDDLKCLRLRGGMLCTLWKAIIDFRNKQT

[2] = molecular target: T2, Structural maintenance of chromosomes protein 1A (Homo sapiens, UniProt Q14683)
T2 sequence (Q14683 whole entry): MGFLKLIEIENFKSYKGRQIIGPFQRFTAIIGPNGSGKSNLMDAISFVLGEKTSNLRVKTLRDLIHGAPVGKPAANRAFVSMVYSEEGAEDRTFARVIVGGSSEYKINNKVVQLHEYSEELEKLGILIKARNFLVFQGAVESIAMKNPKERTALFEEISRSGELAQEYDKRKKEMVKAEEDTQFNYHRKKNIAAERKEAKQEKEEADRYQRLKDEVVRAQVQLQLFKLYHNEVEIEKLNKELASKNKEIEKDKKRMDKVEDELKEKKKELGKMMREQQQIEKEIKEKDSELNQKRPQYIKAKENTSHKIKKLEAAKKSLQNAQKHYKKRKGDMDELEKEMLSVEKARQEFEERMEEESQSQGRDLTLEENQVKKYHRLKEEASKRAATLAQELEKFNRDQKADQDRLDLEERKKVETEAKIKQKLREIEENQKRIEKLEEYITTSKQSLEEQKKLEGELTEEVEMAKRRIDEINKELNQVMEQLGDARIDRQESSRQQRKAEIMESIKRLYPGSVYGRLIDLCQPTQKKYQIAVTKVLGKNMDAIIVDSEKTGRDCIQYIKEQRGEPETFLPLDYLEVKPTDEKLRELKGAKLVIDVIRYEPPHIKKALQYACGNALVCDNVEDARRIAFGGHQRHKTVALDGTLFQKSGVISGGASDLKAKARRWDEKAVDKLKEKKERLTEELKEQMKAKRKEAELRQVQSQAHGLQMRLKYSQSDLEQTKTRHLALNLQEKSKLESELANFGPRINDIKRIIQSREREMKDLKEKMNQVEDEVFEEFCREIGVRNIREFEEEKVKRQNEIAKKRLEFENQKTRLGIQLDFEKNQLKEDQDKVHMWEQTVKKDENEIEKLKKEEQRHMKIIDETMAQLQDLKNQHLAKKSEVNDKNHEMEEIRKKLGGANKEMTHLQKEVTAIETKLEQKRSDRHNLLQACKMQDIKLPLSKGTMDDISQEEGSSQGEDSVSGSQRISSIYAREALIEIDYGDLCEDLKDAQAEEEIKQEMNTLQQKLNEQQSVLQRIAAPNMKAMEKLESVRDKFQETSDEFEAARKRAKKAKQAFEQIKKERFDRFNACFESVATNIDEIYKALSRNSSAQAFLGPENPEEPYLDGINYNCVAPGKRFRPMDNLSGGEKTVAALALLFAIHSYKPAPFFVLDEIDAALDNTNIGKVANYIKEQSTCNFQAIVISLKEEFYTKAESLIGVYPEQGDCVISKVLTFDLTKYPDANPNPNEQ

| Kd [1] | Kd [2] | Structure (SMILES) |
| --- | --- | --- |
| > 30 µM (inactive) | > 30 µM (inactive) | NC1(c2ccc(-c3nc4ccn5c(=O)[nH]nc5c4cc3-c3ccccc3)cc2)CCC1 [MK-2206] |
| > 30 µM (inactive) | > 30 µM (inactive) | CN(C[C@@H]1COCCO1)S(=O)(=O)Nc1ccc2ccc3ncc(-c4cnn(C)c4)cc3c(=O)c2c1 [MK-2461] |
| > 30 µM (inactive) | > 30 µM (inactive) | Cn1cc(-c2cnc3ccc4ccc(CS(=O)(=O)NCc5ccccn5)cc4c(=O)c3c2)cn1 [MK-8033] |
| > 30 µM (inactive) | > 30 µM (inactive) | NC(=O)c1c(OCc2c(F)cc(Br)cc2F)nsc1NC(=O)NCCCCN1CCCC1 [OSI-632] |
| > 30 µM (inactive) | > 30 µM (inactive) | Cc1nc(Nc2n[nH]c3c2CN(C(=O)N[C@H](CN(C)C)c2ccccc2)C3(C)C)c2sccc2n1 [PF-03758309] |
| > 30 µM (inactive) | > 30 µM (inactive) | CCS(=O)(=O)c1cccc(-c2cc(C(=O)NC3CCN(C)CC3)c(C)c3[nH]c4ncc(C)cc4c23)c1 [TAK-901] |
| > 30 µM (inactive) | > 30 µM (inactive) | CC(C)c1cc(CNc2nc(Nc3cc(C4CC4)[nH]n3)cc(N3CCN(C)CC3)n2)on1 [XL-228] |

Further lines, the molecule ahead of its results:

| Structure (SMILES) | Kd [1] | Kd [2] |
| --- | --- | --- |
| FC(F)(F)c1ccc(/C=C/c2nc(COc3ccc(CCCCn4ccnn4)cc3)co2)cc1 [MUBRITINIB] | > 30 µM (inactive) | > 30 µM (inactive) |
| COc1ncc(-c2ccc3nccc(-c4ccnnc4)c3c2)cc1NS(=O)(=O)c1ccc(F)cc1F [OMIPALISIB] | > 30 µM (inactive) | > 30 µM (inactive) |
| Cc1[nH]c(/C=C2\C(=O)Nc3ccccc32)c(C)c1CCC(=O)O [ORANTINIB] | > 30 µM (inactive) | > 30 µM (inactive) |
| CCOc1cc2ncc(C#N)c(Nc3ccc(F)c(Cl)c3)c2cc1NC(=O)/C=C/CN(C)C [PELITINIB] | > 30 µM (inactive) | > 30 µM (inactive) |
| CCCCCCCCCCCCCCCCCCOP(=O)([O-])OC1CC[N+](C)(C)CC1 [PERIFOSINE] | > 30 µM (inactive) | > 30 µM (inactive) |
| Cc1cnc(NC(=O)Nc2cc(Br)c(C)cc2OC[C@@H]2CNCCO2)cn1 [RABUSERTIB] | > 30 µM (inactive) | > 30 µM (inactive) |
| CNC(=O)c1cc(Oc2ccc(NC(=O)Nc3cc(C(C)(C)C)nn3-c3ccc4ncccc4c3)c(F)c2)ccn1 [REBASTINIB] | > 30 µM (inactive) | > 30 µM (inactive) |
| CO[C@H]1C[C@@H]2CC[C@@H](C)[C@@](O)(O2)C(=O)C(=O)N2CCCC[C@H]2C(=O)O[C@H]([C@H](C)C[C@@H]2CC[C@@H](OP(C)(C)=O)[C@H](OC)C2)CC(=O)[C@H](C)/C=C(\C)[C@@H](O)[C@@H](OC)C(=O)[C@H](C)C[C@H](C)/C=C/C=C/C=C/1C [RIDAFOROLIMUS] | > 30 µM (inactive) | > 30 µM (inactive) |
| N#CC1(c2ccc(NC(=O)c3cccnc3NCc3ccncc3)cc2)CCCC1 [RIVOCERANIB] | > 30 µM (inactive) | > 30 µM (inactive) |
| O=c1[nH]ccc2cc(OC3CCNCC3)ccc12 [SAR-407899 FREE BASE] | > 30 µM (inactive) | > 30 µM (inactive) |
| CN1CCN(CCOc2cc(OC3CCOCC3)c3c(Nc4c(Cl)ccc5c4OCO5)ncnc3c2)CC1 [SARACATINIB] | > 30 µM (inactive) | > 30 µM (inactive) |
| CO[C@H]1C[C@@H]2CC[C@@H](C)[C@@](O)(O2)C(=O)C(=O)N2CCCC[C@H]2C(=O)O[C@H]([C@H](C)C[C@@H]2CC[C@@H](O)[C@H](OC)C2)CC(=O)[C@H](C)/C=C(\C)[C@@H](O)[C@@H](OC)C(=O)[C@H](C)C[C@H](C)/C=C/C=C/C=C/1C [SIROLIMUS] | > 30 µM (inactive) | > 30 µM (inactive) |
| CO[C@H]1C[C@@H]2CC[C@@H](C)[C@@](O)(O2)C(=O)C(=O)N2CCCC[C@H]2C(=O)O[C@H]([C@H](C)C[C@@H]2CC[C@@H](OC(=O)C(C)(CO)CO)[C@H](OC)C2)CC(=O)[C@H](C)/C=C(\C)[C@@H](O)[C@@H](OC)C(=O)[C@H](C)C[C@H](C)/C=C/C=C/C=C/1C [TEMSIROLIMUS] | > 30 µM (inactive) | > 30 µM (inactive) |
| COc1cc2c(Nc3ccc(Cl)c(Cl)c3F)ncnc2cc1OC[C@@H]1C[C@@H]2CN(C)C[C@@H]2C1 [TESEVATINIB] | > 30 µM (inactive) | > 30 µM (inactive) |
| O=C(Cc1ccc(-c2ccc(OCCN3CCOCC3)cc2)cn1)NCc1ccccc1 [TIRBANIBULIN] | > 30 µM (inactive) | > 30 µM (inactive) |
| O=C1NC(=O)[C@@H](c2cn3c4c(cccc24)CCC3)[C@@H]1c1c[nH]c2ccccc12 [TIVANTINIB] | > 30 µM (inactive) | > 30 µM (inactive) |
| C[C@@H](NC(=O)c1ncnc(N)c1Cl)c1ncc(C(=O)Nc2cc(C(F)(F)F)c(Cl)cn2)s1 [TOVORAFENIB] | > 30 µM (inactive) | > 30 µM (inactive) |
| Cc1cc(Nc2ncnc3ccc(NC4=NC(C)(C)CO4)cc23)ccc1Oc1ccn2ncnc2c1 [TUCATINIB] | > 30 µM (inactive) | > 30 µM (inactive) |
| C[C@@H](N)c1ccc(C(=O)Nc2ccnc3[nH]ccc23)cc1 [Y-39983] | 50.5 µM (active) | > 30 µM (inactive) |
| CN1C/C=C/CCOc2cccc(c2)-c2ccnc(n2)Nc2cccc(c2)C1 [ZOTIRACICLIB] | > 30 µM (inactive) | > 30 µM (inactive) |
